Data taken from US20120035214A1, “RENIN INHIBITORS” (Merck Canada Inc., priority 2009, published 2012).

How the values were obtained:
[1] = biological target: T1, Human recombinant renin (Homo sapiens, UniProt P00797); test: Inhibition of human recombinant renin (QFRET, buffer); format: biochemical; conditions: buffer: 50 mM MOPS pH 7.4, 100 mM NaCl, 0.002% Tween 20; 37° C., 3 hours
T1 construct: purchased Proteos
T1 sequence (P00797 67-406): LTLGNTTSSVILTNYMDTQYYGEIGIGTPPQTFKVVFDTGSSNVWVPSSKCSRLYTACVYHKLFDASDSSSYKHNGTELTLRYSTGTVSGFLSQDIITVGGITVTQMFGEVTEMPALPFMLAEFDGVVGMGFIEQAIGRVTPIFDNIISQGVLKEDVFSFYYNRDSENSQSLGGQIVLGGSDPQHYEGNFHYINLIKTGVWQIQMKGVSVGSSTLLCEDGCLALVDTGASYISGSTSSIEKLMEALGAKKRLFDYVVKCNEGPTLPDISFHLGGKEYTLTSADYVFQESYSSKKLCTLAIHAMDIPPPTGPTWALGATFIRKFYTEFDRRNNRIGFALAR
Experimental: Inhibition of Human Recombinant Renin
Human recombinant renin (Proteos) in 50 mM MOPS pH 7.4, 100 mM NaCl, 0.002% Tween 20 at a final concentration of […] is incubated with inhibitors from a 50 fold concentrated DMSO solution and 6 μM of an internally-quenched fluorescent peptide: DNP-[…]D,L-Amp (SEQ ID NO: 1); Paschalidou K. et al., Biochem J., 2004, 382, 1031). The reactions take place in a Costar 384 well black plate (#3573) at 37° C. for 3 hours. Fluorescence is measured at times 0 and 3 hours with a SpectraMax Gemini EM reader set at an excitation wavelength of 328 nm and at an emission wavelength of 388 nm. Background fluorescence at t=0 is subtracted from the measurement at t=3 hours. Inhibitory activity of the compounds is expressed as IC50.

[2] = biological target: T2, recombinant renin in human plasma (Homo sapiens, UniProt P00797); test: Inhibition of renin in human plasma (QFRET, plasma); format: biochemical; conditions: human EDTA plasma with 1 nM recombinant renin added; 37° C., 1 hour
T2 construct: purchased Proteos
T2 sequence (P00797 67-406): T1 sequence (P00797 67-406)
Experimental: Inhibition of Renin in Human Plasma
Human EDTA-collected plasma is rapidly thawed in warm water and centrifuged at 2900 g for 15 minutes at 4° C. The supernatant is collected and recombinant renin (Proteos) is added at a final concentration of 1 nM. The plasma is transferred to a Costar black 384 well plate (#3573). Renin inhibitors are added from a 17.5 fold concentrated DMSO solution and pre-incubated at 37° C. for 10 minutes. The internally-quench fluorescent peptide QXL520™-[…](5-FAM) (Anaspec), SEQ ID NO: 2, is diluted in 3M Tris pH 7.2, 200 mM EDTA and added to the plasma. The final concentrations are: 6 μM substrate, 342 mM Tris, 23 mM EDTA. The plate is incubated at 37° C. for 1 hour. The plate is read in a SpectraMax Gemini EM reader set at an excitation wavelength of 490 nm and an emission wavelength of 520 nm at times 0 and 1 hour. Background fluorescence at t=0 is subtracted from the measurement at t=1 hour. Inhibitory activity of the compounds is expressed as IC50.

| IC50 [1] [nM] | IC50 [2] [nM] | Structure (SMILES) |
| --- | --- | --- |
| 1210 | > 9500 | O[C@]1(c2ccc(F)c(F)c2)CCNC[C@@H]1c1cc(-c2c(Cl)cccc2Cl)no1 [Structure 68] |
| 3.7 | 130 | O[C@]1(c2ccc(F)c(F)c2)CCNC[C@@H]1c1onc(-c2c(Cl)cccc2Cl)c1Br [Structure 70] |
| 0.21 | 7.8 | O[C@]1(c2ccc(F)c(F)c2)CCNC[C@@H]1c1onc(-c2cccc(Cl)c2Cl)c1Br [Structure 71] |
| 1.1 | 27 | O[C@]1(c2ccc(F)c(F)c2)CCNC[C@@H]1c1onc(-c2ccccc2Cl)c1Br [Structure 72] |
| 0.47 | 21 | Cc1cccc(-c2noc([C@H]3CNCC[C@]3(O)c3ccc(F)c(F)c3)c2Br)c1C [Structure 73] |
| 4.9 | 430 | Cc1ccc(Cl)c(-c2noc([C@H]3CNCC[C@]3(O)c3ccc(F)c(F)c3)c2Br)c1F [Structure 74] |
| 0.064 | 4.7 | O[C@]1(c2ccc(F)c(F)c2)CCNC[C@@H]1c1onc(-c2cccc3ccccc23)c1Br [Structure 75] |
| 0.36 | 1.6 | CC(=O)NCCc1ccccc1-c1noc([C@H]2CNCC[C@]2(O)c2ccc(F)c(F)c2)c1Br [Structure 76] |
| 0.25 | 7.9 | Fc1ccc([C@@]2(F)CCNC[C@@H]2c2onc(-c3cccc(Cl)c3Cl)c2Br)cc1F [Structure 77] |
| 1.8 | 24 | CC(O)c1c([C@H]2CNCC[C@]2(O)c2ccc(F)c(F)c2)noc1-c1c(Cl)cccc1Cl (some centres unmarked) [Structure 78] |
| 1330 | > 28000 | O[C@]1(c2ccc(F)c(F)c2)CCNC[C@@H]1c1cc(-c2c(Cl)cccc2Cl)on1 [Structure 79] |
| 0.23 | 0.6 | CC(=O)NCCc1ccccc1-c1onc([C@H]2CNCC[C@]2(O)c2ccc(F)c(F)c2)c1Br [Structure 80] |
| 0.053 | 0.44 | CC(=O)NCCc1ccccc1-c1onc([C@H]2CNCC[C@]2(F)c2ccc(F)c(F)c2)c1Br [Structure 81] |
| 0.16 | 1.2 | CO[C@]1(c2ccc(F)c(F)c2)CCNC[C@@H]1c1noc(-c2ccccc2CCNC(C)=O)c1Br [Structure 82] |
| 2.8 | 4.2 | CC(=O)NCCc1ccccc1-c1onc([C@H]2CNCC[C@]2(O)c2ccc(F)c(F)c2)c1C(C)=O [Structure 83] |
| 10 | 93 | COC(=O)NCCc1ccccc1-c1onc([C@H]2CNCC[C@]2(O)c2ccc(F)c(F)c2)c1C(C)=O [Structure 84] |
| 4.3 | 4.5 | CC(=O)NCCc1ccccc1-c1onc([C@H]2CNCC[C@]2(O)c2ccc(F)c(F)c2)c1C(C)O (some centres unmarked) [Structure 85] |
| 0.14 | 0.68 | CC(=O)NCCc1cc(F)ccc1-c1onc([C@H]2CNCC[C@]2(O)c2ccc(F)c(F)c2)c1Br [Structure 86] |
| 0.16 | 0.62 | CC(=O)NCCc1c(F)cccc1-c1onc([C@H]2CNCC[C@]2(O)c2ccc(F)c(F)c2)c1Br [Structure 87] |
| 0.38 | 1 | O=C(CO)NCCc1ccccc1-c1onc([C@H]2CNCC[C@]2(O)c2ccc(F)c(F)c2)c1Br [Structure 88] |
| 0.32 | 1.2 | COC[C@H](C)COCc1ccc([C@@]2(O)CCNC[C@@H]2c2noc(-c3ccccc3CCNC(C)=O)c2Br)cc1 [Structure 89] |
| 0.63 | 4.4 | CC(=O)NCCc1ccccc1-c1onc([C@H]2CNCC[C@]2(OCc2c[nH]nn2)c2ccc(F)c(F)c2)c1Br [Structure 90] |

| IC50 [1] [nM] | IC50 [2] [nM] | Structure (SMILES) |
| --- | --- | --- |
| 2900 | 9470 | O[C@]1(c2ccc(F)c(F)c2)CCNC[C@@H]1c1cn(-c2ccc(F)cc2Br)nn1 [Structure 91] |
| 1990 | > 28000 | Cn1c(-c2ccccc2)cnc1[C@H]1CNCC[C@]1(O)c1ccc(F)c(F)c1 [Structure 92] |
| 0.14 | 0.62 | C[C@H]1C[C@H](c2ccc(F)c(F)c2)[C@@H](c2nnc(-c3cccc(Cl)c3Cl)n2C2CC2)CN1 [Structure 93] |
| 1.5 | 3 | CC(=O)NCCc1ccccc1-c1nnc([C@H]2CN[C@@H](C)C[C@@H]2c2ccc(F)c(F)c2)n1C1CC1 [Structure 94] |
| 0.15 | 0.65 | Fc1ccc([C@H]2CCNC[C@@H]2c2nnc(-c3cccc(Cl)c3Cl)n2C2CC2)cc1F [Structure 95] |
| 0.7 | 2.8 | CC(=O)NCCc1ccccc1-c1onc([C@H]2CN[C@@H](C)C[C@@H]2c2ccc(F)c(F)c2)c1Br [Structure 96] |
| 10 | 89 | CC(=O)NCCc1cccnc1-c1onc([C@H]2CNCC[C@]2(O)c2ccc(F)c(F)c2)c1Br [Structure 97] |
| 0.58 | 2.2 | COCCC[C@H](CNC(C)=O)c1ccccc1-c1onc([C@H]2CNCC[C@]2(O)c2ccc(F)c(F)c2)c1Br [Structure 98] |
| 1.2 | 3.9 | COCCC[C@@H](CNC(C)=O)c1ccccc1-c1onc([C@H]2CNCC[C@]2(O)c2ccc(F)c(F)c2)c1Br [Structure 100] |
| 0.27 | 1.1 | COCCCc1ccc(-c2onc([C@H]3CNCC[C@]3(O)c3ccc(F)c(F)c3)c2Br)c(CCNC(C)=O)c1 [Structure 102] |
| 0.7 | 1.9 | CC(=O)NCCc1ccccc1-c1onc([C@H]2CNCC[C@]2(O)c2ccc(F)c(F)c2)c1Cl [Structure 104] |
| 4.9 | 29 | CC(=O)NCCc1ccccc1-c1onc([C@H]2CNCC[C@]2(O)c2ccc(C)c(F)c2)c1Br [Structure 105] |
| 0.26 | 1.2 | CC(=O)NCCc1ccccc1-c1onc([C@H]2CNCC[C@@H]2c2ccc(F)c(F)c2)c1Br [Structure 107] |
| 0.07 | 2 | COCCCC(CNC(C)=O)c1ccccc1-c1onc([C@H]2CNCC[C@@H]2c2ccc(OCCOc3c(Cl)cc(C)cc3Cl)cc2)c1Br (some centres unmarked) [Structure 108] |
| 0.07 | 1.2 | CC(=O)NCCc1ccccc1-c1onc([C@H]2CNCC[C@@H]2c2ccc(OCCOc3c(Cl)cc(C)cc3Cl)cc2)c1C(C)O (some centres unmarked) [Structure 109] |
| 0.09 | 1.2 | CC(=O)NCCc1ccccc1-c1onc([C@H]2CNCC[C@@H]2c2ccc(OCCOc3c(Cl)cc(C)cc3Cl)cc2)c1C(C)=O [Structure 110] |
| < 0.05 | 1.2 | CC(=O)NCCc1ccccc1-c1onc([C@H]2CNCC[C@@H]2c2ccc(OCCOc3c(Cl)cc(C)cc3Cl)cc2)c1Br [Structure 111] |
| 0.44 | 1.7 | CC(=O)NCCc1ccccc1-c1onc([C@H]2CNCC[C@]2(O)c2ccc(COCC(F)(F)COC(C)C)cc2)c1Br [Structure 112] |
| 0.19 | 0.58 | CCOCC(F)(F)COCc1ccc([C@@]2(O)CCNC[C@@H]2c2noc(-c3ccccc3CCNC(C)=O)c2Br)cc1 [Structure 114] |
| 6.5 | 16 | CC(=O)NCCc1ccccc1-c1onc([C@H]2CNCC[C@]2(O)c2ccc(COCCOC(C)C)cc2)c1Br [Structure 115] |
| 0.37 | 1.4 | CC(=O)NCCc1ccccc1-c1onc([C@H]2CNCC[C@]2(OCC(O)CO)c2ccc(F)c(F)c2)c1Br (some centres unmarked) [Structure 117] |
